Paper PMC11440508, “Dually Labeled Neurotensin NTS1R Ligands for Probing Radiochemical and Fluorescence-Based Binding Assays” (Journal of Medicinal Chemistry, 2024)

How the values were obtained:
[1] = target: T1, NTS1R (Homo sapiens, UniProt P30989); assay: Radiochemical association and dissociation kinetics, suspended CHO-hNTS1R cells; type: binding
Description: (§1) Binding of both ligands, [^3H]13 and [^3H]18, was studied at adherent and suspended intact CHO-hNTS1R cells, and binding of [^3H]13 was additionally studied using CHO-hNTS1R cell membrane preparations (saturation and competition binding, kinetic studies). Furthermore, saturation binding experiments were performed with both ligands at intact adherent HT-29 cells. All experiments were performed in triplicate except for dissociation experiments performed with suspended cells in 50 mL flacon tubes (performed in duplicate). To reduce radioligand consumption in the aforementioned experiments, [^3H]13 and [^3H]18 were 1:1 diluted with 13 and 18, respectively (for the purpose of easier reading these mixtures are denoted "[^3H]13" and "[^3H]18"in the following). All samples were incubated at 23 ± 1 °C in the dark under gentle shaking (incubation times are outlined below). DPBS1 served as binding buffer throughout. In the case of experiments performed with cell suspensions, CHO-hNTS1R cells were seeded in T75 culture flasks 3–4 days prior to the experiment. On the day of the experiment, cells were detached by trypsinization, suspended in DPBS1 and centrifuged at 200g at rt for 5 min. Cells were resuspended in binding buffer and the cell density was adjusted to 1.5 × 10^5 to 2.5 × 10^5 cells/mL. Samples involving suspended cells or membrane preparations were prepared and incubated in 96-well polypropylene plates (Brand 701330, Wertheim, Germany) or in 50 mL polypropylene falcon tubes (Sarstedt), and the same filtration procedure for separating free radioligand from cell- or membrane bound radioligand was applied for all kind of binding experiments: after completed incubation, cells or cell membranes were collected on GF/C filter mats (0.26 mm; Whatman, Maidstone, U.K.) (pretreated with 0.3% polyethylenimine for 30 min) using an in-house manufactured harvester for 96-well plates (precision engineering workshop of the University of Regensburg, Regensburg, Germany), and the wells of the plate and the cells on the filter mat were immediately washed twice with ice-cold PBS (2 × 200 μL) (note: when samples were incubated in falcon tubes, 200-μL aliquots were transferred to the wells of a 96-well polypropylene plate after the incubation period, immediately followed by the filtration procedure). Filter pieces for each well were punched out and transferred into 1450–401 96-well sample plates (PerkinElmer, Rodgau, Germany), followed by the addition of Rotiscint Routine (Carl Roth, Karlsruhe, Germany) (200 μL). The plates were sealed with transparent sealing tape (Greiner EASYseal, part no. 676001, Greiner Bio-One) and shaken in the dark overnight before measurement of the radioactivity (dpm) using a MicroBeta2 plate counter equipped with six pairs of photomultiplier tubes (PerkinElmer).
To start the association, 20 μL of an 18 nM solution of [^3H]13 or 20 μL of a 12 nM solution of [^3H]18 in DPBS1 (final concentrations: 1.8 or 1.2 nM) were added. The samples of the different time points were prepared in reversed order (longest incubation time first, shortest incubation time last) so that the cells of all samples could be harvested simultaneously. The time span for sample incubation was 1–180 min. Adherent cells: 96-well white/clear bottom plates with adherent cells were prefilled with DPBS1 (160 μL) after initial washing of the cells. […] To start the association, 20 μL of a 13 nM solution of [^3H]13 or 20 μL of an 11 nM solution of [^3H]18 in DPBS1 (final concentrations: 1.3 or 1.1 nM) were added. When the incubation time was reached, all liquid was removed by suction followed by washing (2 × ice-cold PBS) and cell lysis. The samples of the different time points were prepared in reversed order (longest incubation time first, shortest incubation time last) so that the cells of all samples could be washed and lysed simultaneously. […]

[2] = target: T1, NTS1R; assay: Radiochemical association and dissociation kinetics, adherent CHO-hNTS1R cells; type: binding
Description: as §1
For experiments involving adherent cells, CHO-hNTS1R (25,000 cells per well) or HT-29 (35,000 cells per well) cells were seeded one day prior to the experiment in white 96-well plates with clear bottom (VWR 732–3740). On the day of the experiment, the medium was aspirated and the cells (confluency: 70–90%) were washed with PBS (200 μL) followed by covering with DPBS1 (160 μL) and the addition of the ligands as outlined below. After completed incubation, the liquid was aspirated and the wells were washed twice with ice-cold PBS (200 μL) followed by the addition of lysis solution (urea (8 M), acetic acid (3 M) and Triton-X (1%) in water) (25 μL). After shaking for at least 20 min, liquid scintillator (UltimaGold, PerkinElmer) (200 μL) was added and the plates were sealed with a transparent sealing tape (permanent seal for microplates, PerkinElmer, prod. no. 1450–461). The sealed plates were turned upside down several times to achieve complete mixing of scintillator and lysis solution and were kept in the dark for at least 3 h before measurement of the radioactivity (dpm) with the MicroBeta2 plate counter. […]

[3] = target: T1, NTS1R; assay: Radioligand competition binding with [^3H]UR-MK300 at intact HT-29 colon carcinoma cells; details: [^3H]UR-MK300, intact HT-29 cells, 23 °C; read-out: NTS1R pKi ± SEM (converted)
Description: NTS1R binding affinities were determined in a reported competition binding assay[13] using intact hNTS1R-expressing HT-29 colon carcinoma cells and [^3H]UR-MK300 (structure see Figure 1A) as radioligand (competition binding curves shown in Figure S4, Supporting Information).
NTS1R radioligand competition binding experiments with [^3H]UR-MK300 (molar activity: 2.41 TBq/mmol) and the peptides 6–9, 10a, 10b, 13–16, and 18 were performed with intact hNTS1R-expressing human HT-29 colon carcinoma cells at 23 ± 1 °C using a previously reported protocol.[13] […] Cells were seeded one day before the assay, yielding a confluency of at least 90% on the day of the experiment. Total binding data (including total binding in the absence of competitor) were plotted as dpm values against log(concentration competitor) and analyzed by a four-parameter logistic equation (log(inhibitor) vs response–variable slope, GraphPad Prism 5, GraphPad Software, San Diego, CA) to obtain pIC50 values. Individual pIC50 values were converted to pKi values according to the Cheng–Prusoff equation[60] (logarithmic form). To plot average data from individual binding experiments, data were normalized (100% = “top” of the four-parameter logistic fit, 0% = unspecifically bound radioligand).

T1 sequence (P30989 whole entry): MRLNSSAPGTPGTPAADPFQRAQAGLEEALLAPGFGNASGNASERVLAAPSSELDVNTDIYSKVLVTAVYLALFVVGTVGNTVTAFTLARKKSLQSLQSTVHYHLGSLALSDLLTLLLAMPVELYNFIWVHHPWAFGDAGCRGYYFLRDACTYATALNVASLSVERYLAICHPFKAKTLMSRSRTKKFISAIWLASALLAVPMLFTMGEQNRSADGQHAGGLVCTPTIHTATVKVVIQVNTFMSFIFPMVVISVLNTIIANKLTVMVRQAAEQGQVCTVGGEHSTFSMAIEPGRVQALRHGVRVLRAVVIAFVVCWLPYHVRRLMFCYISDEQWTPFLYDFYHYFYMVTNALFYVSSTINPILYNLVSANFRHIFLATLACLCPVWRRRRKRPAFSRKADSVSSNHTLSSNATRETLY

With `CCC(=O)NCCCCNC(=O)NC(=N)NCCC[C@H](NC(=O)[C@@H]1CCCN1C(=O)[C@@H](NC(=O)CCc1cn(CCCNC(=O)c2ccc(-c3c4ccc(=[N+](C)C)cc-4oc4cc(N(C)C)ccc34)c(C(=O)[O-])c2)nn1)C1CCNCC1)C(=O)N[C@@H](CCCNC(=N)N)C(=O)N1CCC[C@H]1C(=O)N[C@@H](Cc1ccc(O)cc1)C(=O)N[C@H](C(=O)N[C@@H](CC(C)C)C(=O)O)[C@@H](C)CC` [[^3H]13] the koff ([1]; suspended CHO-hNTS1R cells (50 mL falcon tubes), 23 °C, read-out: koff [min^–1] (converted)) was 0.0006 s⁻¹, the “kobs(slow) [min^–1]” value ([1]; suspended CHO-hNTS1R cells, biphasic exponential fit) was 0.051 ± 0.001 ^b min^–1 and the kon ([1]; suspended CHO-hNTS1R cells, calculated from koff, kobs(fast) and ligand concentration, read-out: kon(fast) [min^–1 nM^–1] (converted)) was 1.35e+07 M⁻¹ s⁻¹. For the same compound, the Kd ([1]; suspended CHO-hNTS1R cells, koff/kon(fast), read-out: Kd(kin)) was 0.044 ± 0.02 nM, the “kobs(fast) [min^–1]” value ([1]; suspended CHO-hNTS1R cells, monophasic fit of initial association phase, 1.8 nM [^3H]13 or […] [^3H]18) was 1.5 ± 0.3 ^a min^–1 and the “Proportion of fast kinetic component (association)” value ([1]; suspended cells) was 21%. The “Proportion of slow kinetic component (association)” value ([1]; suspended cells) was 79%, the koff ([2]; adherent CHO-hNTS1R cells, 23 °C, read-out: koff [min^–1] (converted)) was 0.000233 s⁻¹ and the “kobs(slow) [min^–1]” value ([2]; adherent CHO-hNTS1R cells, biphasic exponential fit) was 0.011 ± 0.001 ^b min^–1. The kon ([2]; adherent CHO-hNTS1R cells, calculated from koff, kobs(fast) and ligand concentration, read-out: kon(fast) [min^–1 nM^–1] (converted)) was 5.5e+06 M⁻¹ s⁻¹, the Kd ([2]; adherent CHO-hNTS1R cells, koff/kon(fast), read-out: Kd(kin)) was 0.41 ± 0.24 nM and the “kobs(fast) [min^–1]” value ([2]; adherent CHO-hNTS1R cells, monophasic fit of initial association phase, 1.3 nM [^3H]13 or […] [^3H]18) was 0.57 ± 0.08 ^a min^–1. For the same compound, the “Proportion of fast kinetic component (association)” value ([2]; adherent cells) was 19% and the “Proportion of slow kinetic component (association)” value ([2]; adherent cells) was 81%.
`CCC(=O)NCCCCNC(=O)NC(=N)NCCC[C@H](NC(=O)[C@@H]1CCCN1C(=O)[C@@H](NC(=O)CCc1cn(CCCNC(=O)CCC#Cc2ccc3c(c2)C(C)(C)C2=C4C=C5C6=[N+](CCC5OC4CCN23)c2ccc(S(=O)(=O)[O-])cc2C6(C)C)nn1)C1CCNCC1)C(=O)N[C@@H](CCCNC(=N)N)C(=O)N1CCC[C@H]1C(=O)N[C@H](C(=O)N[C@H](C(=O)N[C@@H](CC(C)C)C(=O)O)[C@@H](C)CC)C(C)(C)c1ccc(O)cc1` (stereo partly drawn) [Compound 18, N^α-(3-(N-(1-(8-Sulfonato-5,5,27,27-tetramethyl-16-oxa-20-aza-12-azoniaheptacyclo[15.11.0.03,15.04,12.06,11.020,28.021,26]octacosa-1(28),2,4(12),6(11),7,9,21(26),22,24-nonaen-24-yl)-5-oxopentyn-5-yl)-1-aminoprop-3-yl-1H-1,2,3-triazol-4-yl)propanoyl)-2-(piperidin-4-yl)-Gly-Pro-N^ω-[(4-(N-propanoyl)aminobutyl)aminocarbonyl]Arg-Arg-Pro-β,β-dimethyl-L-Tyr-Ile-Leu Tris(hydrotrifluoroacetate)] showed a Ki [3] of 4.07 nM.
